Common to all, as to type: cell-based
Test [1] has as its system platelet aggregation induced by arachidonic acid (AA) in washed rabbit platelets. Description: Inhibition of arachidonic acid-induced aggregation of washed rabbit platelets (turbidimetry, Lumi-aggregometer). Conditions: Oryctolagus cuniculus; for activity at 100 µg/mL: 0.05 h, AA 100 μM, compound 100 μg/ml, preincubated at 37° for 3 min, mean ± SEM (n); for IC50: AA 100 μg/ml. As to the method:
(§1) The pharmacological activity of these compounds were determined according to G.V.R. Born by turbidimetry (J. Physiol., 1963, 168, 178). Based on the method, samples were suspended in rabbit platelets which were washed with platelet-rich plasma, the aggregation was then counted by the Lumi-aggregometer (Model 1020, Paytoon, Canada). Formula (I-III) at the concentration of 100 μg/ml are found to inhibit the platelet aggregation perfectly which was induced by arachidonic acid (AA), collagen, ADP, and PAF. Since the structures of these compounds are different from those of known antiplatelet agents, the present invention have the potential for further development.
4. AA (arachidonic acid), purchased from Sigma, was dissolved in deionized water.
(§2) Platelet suspension was prepared from EDTA-anticoagulated Platelet-rich plasma according to washing procedures described previously (Teng, C. M. et. al., Thromb Haemost 59, 304, 1991). Platelets were counted by Hemalaser 2 (Sebia, France) and adjusted to a concentration of 4.5×10^8 platelets/mL. Platelet pellets were finally suspended in Tyrode's buffer (pH 7.4) of the following composition: NaCl (136.8 mM), KCl (2.8 mM), NaHCO3 (11.9 mM), MgCl2 (2.1 mM), NaH2 PO4 (0.33 mM), CaCl2 (1 mM), glucose (11.2 mM) containing 0.35% bovine serum albumin.
(§3) Aggregation was measured by the turbidimetry method as described by O'Brien (J Clin Pathol 15, 452, 1962). ATP released from platelets was detected by the bioluminescence method of DeLuca and McElory (Methods Enzymol 57, 3, 1978). Both aggregation and ATP release were measured simultaneously in a Lumi-aggregometer (model 1020B, Payton, Canada) connected to two dt/al-channel recorders. Platelet preparations were stirred at 900 rpm. When DMSO was used as solvent, its final concentration was fixed at 0.5% (v/v) to eliminate the effect of the solvent. For the calculation of percentage aggregation, the absorbance of platelet suspension was designated as 0% aggregation and the absorbance of platelet-free Tyrode's solution as 100% aggregation. The antiplatelet effects were shown in Table 1 and the inhibitory concentrations for 50% aggregation (IC50) were expressed in Table 2.

Test [2] concerns platelet aggregation induced by thrombin (Thr) in washed rabbit platelets. Description: Inhibition of thrombin-induced aggregation of washed rabbit platelets (turbidimetry, Lumi-aggregometer). Conditions: Oryctolagus cuniculus, Thr 0.1 U/ml; for activity at 100 µg/mL: 0.05 h, compound 100 μg/ml, preincubated at 37° for 3 min, mean ± SEM (n). As to the method: as §1
1. Bovine thrombin, from the Parke Davis Co., was dissolved in 50% (v/v) glycerol for a stock solution of 100 NIH units/mL.
as §2, §3

The subject of test [3] is platelet aggregation induced by platelet-activating factor (PAF) in washed rabbit platelets. Description: Inhibition of PAF-induced aggregation of washed rabbit platelets (turbidimetry, Lumi-aggregometer). Particulars: Oryctolagus cuniculus, PAF 2 nM. The method, then:
as §1
3. PAF (1-O-alkyl-2-acetyl-sn-glycerol-3-phosphorylcholine), purchased from Sigma, was dissolved in chloroform and diluted into 0.1% BSA-saline solution immediately prior to use.
as §2, §3

The test system of test [4] is platelet aggregation induced by collagen (Col) in washed rabbit platelets. Description: Inhibition of collagen-induced aggregation of washed rabbit platelets (turbidimetry, Lumi-aggregometer). Conditions: Oryctolagus cuniculus, Col 10 μg/ml; for activity at 100 µg/mL: 0.05 h, compound 100 μg/ml, preincubated at 37° for 3 min, mean ± SEM (n). As to the method:
as §1
2. Collagen (type I: bovine Achilles tendon), from the Sigma Chemical Co., was homogenized in 25 mM acetic acid and stored (1 mg/mL) at -70° C.
as §2, §3

The structures appear in SMILES notation. ≈ marks a conversion by molar mass, not a printed value.

As usually defined, the IC50 is the midpoint of a concentration-inhibition curve. High values mean a need for much substance, low ones inhibition by little substance.

Take `C=C1CC(COc2cccc3ccc(=O)[nH]c23)(c2ccccc2)OC1=O` (stereo not shown) [Compound 6, 8-[(2,3,4,5-Tetrahydro-4-methylene-5-oxo-2-phenyl-2-furanyl)methoxy]-2(1H)-quinolinone]: the activity at 100 µg/mL stood at 0% in test [1], 54.3 ± 1.3% in test [2] and 0% in test [4]. Also, the IC50 is 8.3 µg/mL (≈ 23.9 µM) in test [1], over 50 µg/mL in test [2] and over 50 µg/mL in test [3].
Regarding `C=C1CC(C)(COc2cc(=O)oc3ccccc23)OC1=O` (stereo not shown) [Compound 1, 4-[(2,3,4,5-Tetrahydro-2-methyl-4-methylene-5-oxo-2-furanyl)methoxy]-2H-1-benzopyran-2-one], the activity at 100 µg/mL in test [1] was found to be 23.3 ± 12.6%; in test [2] it was 74.4 ± 9.6%; in test [4], 8.5 ± 6.9%. Further, the IC50 in test [1], in test [2], in test [3] and in test [4] was over 50 µg/mL in each case.
For the compound `C=C1CC(C)(COc2ccc3ccc(=O)oc3c2)OC1=O` (stereo not shown) [Compound 3, 7-[(2,3,4,5-Tetrahydro-2-methyl-4-methylene-5-oxo-2-furanyl)methoxy]-2H-1-benzopyran-2-one], the activity at 100 µg/mL turned out to be 0% in test [1], 22.8 ± 6.6% in test [2] and 0% in test [4]. For the same compound, the figures for the IC50 in test [1], in test [2] and in test [3] were 26.1 µg/mL (≈ 91.1 µM), over 50 µg/mL and over 50 µg/mL, respectively.
With `C=C1CC(C)(COc2cccc3ccc(C)nc23)OC1=O` (stereo not shown) [Compound 10, 8-[(2,3,4,5-Tetrahydro-2-methyl-4-methylene-5-oxo-2-furanyl)methoxy]-2-methylquinoline], the activity at 100 µg/mL in test [1], in test [2] and in test [4] was 0% in each case. The IC50 in test [2] was over 50 µg/mL; in test [3], 39.6 µg/mL (≈ 140 µM); in test [4], 16.2 µg/mL (≈ 57.3 µM).
For the compound `C=C1CC(COc2cccc3ccc(C)nc23)(c2ccc(Cl)cc2)OC1=O` (stereo not shown) [Compound 12, 8-[(2-(p-Chlorophenyl)-2,3,4,5-tetrahydro-4-methylene-5-oxo-2-furanyl)methoxy]-2-methylquinoline], the activity at 100 µg/mL in test [1], in test [2] and in test [4] was 0% throughout. Besides, in test [3], the IC50 turned out to be 10.8 µg/mL (≈ 28.5 µM).
As to `C=C1CC(C)(COc2cccc3ccc(=O)[nH]c23)OC1=O` (stereo not shown) [Compound 5, 8-[(2,3,4,5-Tetrahydro-2-methyl-4-methylene-5-oxo-2-furanyl)methoxy]-2(1H)-quinolinone], the activity at 100 µg/mL came to 0% in test [1], 25.9 ± 0.7% in test [2] and 0% in test [4]. Also, in test [1], 10.5 µg/mL (≈ 36.9 µM) corresponded to half-maximal inhibition (IC50).
As for `C=C1CC(COc2ccc3ccc(=O)oc3c2)(c2ccccc2)OC1=O` (stereo not shown) [Compound 4, 7-[(2,3,4,5-Tetrahydro-4-methylene-5-oxo-2-Phenyl-2-furanyl)methoxy]-2H-1-benzopyran-2-one], the activity at 100 µg/mL in test [1], in test [2] and in test [4] was 0% throughout. Also, the IC50 in test [1] came to 1.27 µg/mL (≈ 3.65 µM); in test [3] it was 5.7 µg/mL (≈ 16.4 µM).
Turning to `C=C1CC(COc2cccc3cccnc23)(c2ccccc2)OC1=O` (stereo not shown) [Compound 8, 8-[(2,3,4,5-Tetrahydro-4-methylene-5-oxo-2-phenyl-2-furanyl)methoxy]quinoline], the activity at 100 µg/mL in test [1], in test [2] and in test [4] was 0% throughout. Also, the IC50 in test [2] stood at 15.8 µg/mL (≈ 47.6 µM); in test [3] it was 11.1 µg/mL (≈ 33.6 µM); in test [4], 4.76 µg/mL (≈ 14.4 µM).
Take `C=C1CC(COc2cccc3cccnc23)(c2ccc(Cl)cc2)OC1=O` (stereo not shown) [Compound 9, 8-[(2-(p-Chlorophenyl)-2,3,4,5-tetrahydro-4-methylene-5-oxo-2-furanyl)methoxy]quinoline]: the activity at 100 µg/mL in test [1], in test [2] and in test [4] was 0% throughout. For the same compound, the IC50 in test [2] came to 13.7 µg/mL (≈ 37.4 µM); in test [3] it was 12.4 µg/mL (≈ 33.8 µM); in test [4], 5.17 µg/mL (≈ 14.1 µM).
For the compound `C=C1CC(COc2cccc3ccc(C)nc23)(c2ccccc2)OC1=O` (stereo not shown) [Compound 11, 8-[(2,3,4,5-Tetrahydro-4-methylene-5-oxo-2-phenyl-2-furanyl)methoxy]-2-methylquinoline], the activity at 100 µg/mL in test [1], in test [2] and in test [4] was 0% throughout. Moreover, the IC50 was 14.9 µg/mL (≈ 43.1 µM) in test [2], 10.5 µg/mL (≈ 30.5 µM) in test [3] and 5.76 µg/mL (≈ 16.7 µM) in test [4].
For `C=C1CC(C)(COc2cccc3cccnc23)OC1=O` (stereo not shown) [Compound 7, 8-[(2,3,4,5-Tetrahydro-2-methyl-4-methylene-5-oxo-2-furanyl)methoxy]quinoline], the activity at 100 µg/mL in test [1] was determined as 0%; in test [2], 17.4 ± 7.9%; in test [4], 0%. In addition, the IC50 in test [2] was over 50 µg/mL; in test [3], 47.9 µg/mL (≈ 178 µM); in test [4] it was 27.2 µg/mL (≈ 101 µM).
In the case of `C=C1CC(COc2cc(=O)oc3ccccc23)(c2ccccc2)OC1=O` (stereo not shown) [Compound 2, 4-[(2,3,4,5-Tetrahydro-4-methylene-5-oxo-2-phenyl-2-furanyl)methoxy]-2H-1-benzopyran-2-one], the activity at 100 µg/mL in test [1], in test [2] and in test [4] was 0% throughout. For the same compound, the IC50 in test [1] was found to be 2.86 µg/mL (≈ 8.21 µM); in test [3], 36 µg/mL (≈ 103 µM).

The values above are taken from patent US5646164A, “α-methylene-γ-butyrolactones: new inhibitors of platelet aggregation” (National Science Council, priority 1995, dated 1997).
